Source: publication PMC8838534, “Unprecedented Epimerization of an Azithromycin Analogue: Synthesis, Structure and Biological Activity of 2′-Dehydroxy-5″-Epi-Azithromycin” (Molecules, 2022)
Values after ≈ are worked out from the molar mass of the structure shown. Values joined by “and” are separate entries in the source; they are usually repeats but may differ in a detail not shown here. Equal entries are not always repeated.

What was measured:
[1] = tested on: neutrophil accumulation in BALF of LPS-challenged BALB/cJ mice; test: LPS-induced pulmonary neutrophilia; assay type: in vivo, mouse (BALB/cJ); conditions: 200 mg/kg intraperitoneally 2 h prior LPS, BALF 24 h after LPS
Procedure: Vehicle, azithromycin, and compound 4 were administered intraperitoneally at a dose of 200 mg/kg (b.w.) to 10-week-old male BALB/cJ mice (Charles River, Lyon, France) 2 h before intranasal challenge with 2 μg of LPS from E. coli. Then, 24 h after LPS application animals were euthanized and bronchoalveolar lavage was performed. Total number of cells in BALF was counted with a hematological analyzer (Sysmex SF 3000, Sysmex Corp., Kobe, Japan). Percentages of neutrophils were determined by morphological examination of at least 200 cells on smears prepared by cytocentrifugation (Cytospin-3, Thermo Fisher Scientific Inc, Waltham, MA, USA) and stained with Kwik-Diff staining set (Thermo Fisher Scientific Inc., USA).
All values are presented as means ± S.E.M. To define statistically significant differences in cell numbers among vehicle-treated and macrolide-treated mice the data were subjected to one-way ANOVA followed by Dunnett’s Multiple Comparison Test using GraphPad Prism version 5.00 for Windows (GraphPad Software, San Diego, CA, USA). The level of significance was set at p < 0.05 in all cases.

[2] = Pharmacokinetics in mouse; assay type: in vivo, Balb/c mice
Procedure: (§1) Pharmacokinetic profiles were determined in male Balb/c mice and CD Sprague-Dawley rats (Charles River Laboratories, Germany), following single oral (p.o.) and single intravenous (i.v.) bolus administration. The compound was administered at a dose of […] i.v. and 10 mg/kg p.o. Blood was obtained by serial blood sampling from the tail vein over a range of time points up to 30 h postdose. Samples were extracted by protein precipitation and subjected to quantitative analysis by LC-MS/MS using compound-specific mass transitions. Drug concentration−time profiles were generated and noncompartmental PK analysis used to generate estimates of half-life, clearance, volume of distribution, and oral bioavailability.

[3] = Pharmacokinetics in dog; assay type: in vivo, Beagle dogs
[4] = tested on: neutrophil accumulation in BALF of cigarette-smoke-challenged mice; test: Cigarette-smoke-induced pulmonary inflammation; assay type: in vivo, mouse; conditions: oral dosing 2 h prior smoke challenge on each smoke day
[5] = tested on: Streptococcus pneumoniae (ATCC49619); test: Antimicrobial activity, CLSI broth microdilution MIC; assay type: cell-based; conditions: read-out: MIC S. penumoniae
From the text: (§2) The Clinical and Laboratory Standards (CLSI) recommended procedure (Document M7-[…], Methods for Dilution Susceptibility Tests for Bacteria that Grow Aerobically) by broth microdilution was used to determine the antimicrobial activity of compounds against Escherichia coli (ATCC25922), Staphylococcus aureus (ATCC13709), Streptococcus pneumoniae (ATCC49619), Streptococcus pyogenes (ATCC700294), Moraxella catarrhalis (ATCC23246) and Haemophilus influenzae (ATCC49247). The minimum inhibitory concentration (MIC) is determined as the lowest concentration of compound that inhibited visible growth.

[6] = tested on: Haemophilus influenzae (ATCC49247); test: as above; assay type: cell-based; conditions: read-out: MIC H. influenzae
From the text: as §2

[7] = tested on: Escherichia coli (ATCC25922); test: as above; assay type: cell-based
From the text: as §2

[8] = tested on: Moraxella catarrhalis (ATCC23246); test: as above; assay type: cell-based
From the text: as §2

[9] = tested on: Streptococcus pyogenes (ATCC700294); test: as above; assay type: cell-based; conditions: read-out: MIC S. pyogenes
From the text: as §2

[10] = tested on: Staphylococcus aureus (ATCC13709); test: as above; assay type: cell-based; conditions: read-out: MIC S. aureus
From the text: as §2

[11] = molecular target: T1, recombinant human CYP1A2 (Homo sapiens, UniProt P05177); test: In vitro cytochrome inhibition; assay type: in vitro ADME; conditions: recombinant human CYP, fluorescent probe; read-out: IC50 inhibition of cytochrome 1A2
T1 construct: purchased Cypex
T1 sequence (P05177 1-516): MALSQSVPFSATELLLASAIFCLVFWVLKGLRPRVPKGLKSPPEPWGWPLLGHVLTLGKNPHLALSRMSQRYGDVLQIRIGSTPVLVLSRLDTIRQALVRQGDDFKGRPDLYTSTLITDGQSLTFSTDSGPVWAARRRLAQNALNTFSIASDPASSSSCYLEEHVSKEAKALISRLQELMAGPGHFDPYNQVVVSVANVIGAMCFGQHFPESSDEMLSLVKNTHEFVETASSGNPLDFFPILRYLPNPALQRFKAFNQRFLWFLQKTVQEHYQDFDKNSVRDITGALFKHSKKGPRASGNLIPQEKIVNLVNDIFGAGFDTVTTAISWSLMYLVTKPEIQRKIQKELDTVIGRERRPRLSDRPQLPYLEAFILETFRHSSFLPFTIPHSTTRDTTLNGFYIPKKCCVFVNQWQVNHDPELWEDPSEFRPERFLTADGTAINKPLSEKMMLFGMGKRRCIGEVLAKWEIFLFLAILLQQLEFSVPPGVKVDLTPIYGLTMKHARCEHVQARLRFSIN
Procedure: (§3) Test compounds were incubated using a concentration range from 0.1 to 100 µM with recombinant human CYP1A2, 2C9, 2C19, 2D6 and 3A4 (Cypex). The compounds were preincubated at 37 °C for 5 or 10 min with the CYP enzyme isoforms, in the presence of 50 mM phosphate buffer (pH 7.4) and fluorescent probes. The incubations were started by addition of a cofactor solution containing NADP, glucose 6-phosphate and glucose 6-phosphate dehydrogenase. The plates were incubated for 10 min at 37 °C reading the fluorescence signal on a plate reader throughout. The fluorescence data were then used to calculate the IC50 values for each compound.

[12] = molecular target: T2, recombinant human CYP3A4 (Homo sapiens, UniProt P08684); test: In vitro cytochrome inhibition; assay type: in vitro ADME; conditions: recombinant human CYP, fluorescent probe; read-out: IC50 inhibition of cytochrome 3A4
T2 construct: purchased Cypex
Procedure: as §3

[13] = molecular target: T3, recombinant human CYP2C19 (Homo sapiens, UniProt P33261); test: In vitro cytochrome inhibition; assay type: in vitro ADME; conditions: recombinant human CYP, fluorescent probe; read-out: IC50 inhibition of cytochrome 2C19
T3 construct: purchased Cypex
Procedure: as §3

[14] = molecular target: T4, recombinant human CYP2C9 (Homo sapiens, UniProt P11712); test: In vitro cytochrome inhibition; assay type: in vitro ADME; conditions: recombinant human CYP, fluorescent probe; read-out: IC50 inhibition of cytochrome 2C9
T4 construct: purchased Cypex
Procedure: as §3

[15] = molecular target: T5, recombinant human CYP2D6 (Homo sapiens, UniProt P10635); test: In vitro cytochrome inhibition; assay type: in vitro ADME; conditions: recombinant human CYP, fluorescent probe; read-out: IC50 inhibition of cytochrome 2D6
T5 construct: purchased Cypex
Procedure: as §3

[16] = Pharmacokinetics in rat; assay type: in vivo, Sprague Dawley rats
Procedure: as §1

T2 sequence (P08684 whole entry): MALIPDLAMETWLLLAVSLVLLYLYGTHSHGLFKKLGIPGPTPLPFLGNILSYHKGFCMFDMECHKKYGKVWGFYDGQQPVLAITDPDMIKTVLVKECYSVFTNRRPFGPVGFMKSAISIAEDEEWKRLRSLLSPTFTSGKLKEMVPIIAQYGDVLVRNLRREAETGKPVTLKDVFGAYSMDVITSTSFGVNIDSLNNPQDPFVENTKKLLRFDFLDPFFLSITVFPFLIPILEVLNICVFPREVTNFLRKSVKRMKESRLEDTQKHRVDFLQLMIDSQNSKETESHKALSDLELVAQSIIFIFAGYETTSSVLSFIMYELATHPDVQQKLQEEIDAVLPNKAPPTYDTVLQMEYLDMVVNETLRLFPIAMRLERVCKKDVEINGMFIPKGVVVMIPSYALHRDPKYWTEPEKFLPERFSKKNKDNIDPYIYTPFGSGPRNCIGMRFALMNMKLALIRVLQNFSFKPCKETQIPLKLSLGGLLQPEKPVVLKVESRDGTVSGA
T4 sequence (P11712 whole entry): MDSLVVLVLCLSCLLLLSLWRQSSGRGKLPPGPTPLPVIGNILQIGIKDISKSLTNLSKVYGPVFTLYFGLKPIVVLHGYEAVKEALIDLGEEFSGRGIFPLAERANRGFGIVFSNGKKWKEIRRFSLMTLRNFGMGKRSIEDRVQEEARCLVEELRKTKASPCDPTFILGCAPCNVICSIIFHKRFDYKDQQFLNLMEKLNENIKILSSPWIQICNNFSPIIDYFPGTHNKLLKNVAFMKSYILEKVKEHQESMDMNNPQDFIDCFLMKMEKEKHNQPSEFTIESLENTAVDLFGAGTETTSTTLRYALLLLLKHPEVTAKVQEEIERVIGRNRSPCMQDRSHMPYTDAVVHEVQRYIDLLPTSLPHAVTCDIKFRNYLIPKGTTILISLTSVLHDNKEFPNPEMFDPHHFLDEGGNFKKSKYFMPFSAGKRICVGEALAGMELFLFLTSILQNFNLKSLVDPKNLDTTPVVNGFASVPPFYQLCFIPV
T5 sequence (P10635 whole entry): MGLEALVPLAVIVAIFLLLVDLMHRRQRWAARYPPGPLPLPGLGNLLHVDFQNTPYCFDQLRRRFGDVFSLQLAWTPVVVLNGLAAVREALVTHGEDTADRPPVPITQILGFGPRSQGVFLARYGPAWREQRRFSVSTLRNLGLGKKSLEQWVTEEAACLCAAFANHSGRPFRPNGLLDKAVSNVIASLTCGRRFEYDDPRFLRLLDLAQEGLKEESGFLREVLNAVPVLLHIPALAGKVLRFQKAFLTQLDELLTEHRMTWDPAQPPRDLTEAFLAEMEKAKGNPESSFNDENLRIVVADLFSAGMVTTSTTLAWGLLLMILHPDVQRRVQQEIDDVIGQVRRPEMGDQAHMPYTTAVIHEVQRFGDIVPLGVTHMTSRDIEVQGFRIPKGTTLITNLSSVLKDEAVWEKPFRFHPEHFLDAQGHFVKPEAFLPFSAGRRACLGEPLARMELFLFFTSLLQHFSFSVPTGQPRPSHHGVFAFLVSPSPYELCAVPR
T3 sequence (P33261 whole entry): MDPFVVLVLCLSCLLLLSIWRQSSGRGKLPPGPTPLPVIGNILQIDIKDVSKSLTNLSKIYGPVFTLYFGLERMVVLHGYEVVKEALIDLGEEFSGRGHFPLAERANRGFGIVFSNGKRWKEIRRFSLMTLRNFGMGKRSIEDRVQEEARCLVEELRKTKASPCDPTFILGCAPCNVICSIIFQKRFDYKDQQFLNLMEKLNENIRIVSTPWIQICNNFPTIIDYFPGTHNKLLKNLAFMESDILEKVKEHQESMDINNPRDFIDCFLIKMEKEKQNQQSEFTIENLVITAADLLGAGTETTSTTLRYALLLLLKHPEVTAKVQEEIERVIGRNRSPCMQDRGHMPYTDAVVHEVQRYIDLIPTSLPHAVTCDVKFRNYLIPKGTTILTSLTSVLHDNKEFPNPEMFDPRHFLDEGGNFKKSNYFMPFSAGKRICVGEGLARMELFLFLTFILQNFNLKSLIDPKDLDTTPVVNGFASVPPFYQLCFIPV

| MIC [5] | MIC [6] | MIC [7] | MIC [8] | MIC [9] | MIC [10] | SMILES | Neutrophil accumulation in BALF after cigarette-smoke challenge [4] | also measured |
| --- | --- | --- | --- | --- | --- | --- | --- | --- |
| 32 µg/mL (≈ 43.7 µM) | > 64 µg/mL | > 64 µg/mL | 16 µg/mL (≈ 21.8 µM) | 64 µg/mL (≈ 87.3 µM) | > 64 µg/mL | CC[C@H]1OC(=O)[C@H](C)[C@@H](O[C@H]2C[C@@](C)(OC)[C@@H](O)[C@H](C)O2)[C@H](C)[C@@H](O[C@H]2C[C@@H](N(C)C)C[C@@H](C)O2)[C@](C)(O)C[C@@H](C)CN(C)[C@H](C)[C@@H](O)[C@]1(C)O [compound 3, 2 ′-dehydroxy azithromycin] | – | – |
| < 0.125 µg/mL | 2 µg/mL (≈ 2.67 µM) | 2 µg/mL (≈ 2.67 µM) | < 0.125 µg/mL | < 0.125 µg/mL | 0.5 µg/mL (≈ 0.668 µM) | CC[C@H]1OC(=O)[C@H](C)[C@@H](O[C@H]2C[C@@](C)(OC)[C@@H](O)[C@H](C)O2)[C@H](C)[C@@H](O[C@@H]2O[C@H](C)C[C@H](N(C)C)[C@H]2O)[C@](C)(O)C[C@@H](C)CN(C)[C@H](C)[C@@H](O)[C@]1(C)O [AZM, azithromycin] | dose-dependently inhibited the accumulation of neutrophils | – |

| SMILES | MIC [5] | MIC [6] | MIC [7] | MIC [8] | MIC [9] | MIC [10] | Neutrophil accumulation in BALF after cigarette-smoke challenge [4] | also measured |
| --- | --- | --- | --- | --- | --- | --- | --- | --- |
| CC[C@H]1OC(=O)[C@H](C)[C@@H](O[C@H]2C[C@@](C)(OC)[C@@H](O)[C@@H](C)O2)[C@H](C)[C@@H](O[C@H]2C[C@@H](N(C)C)C[C@@H](C)O2)[C@](C)(O)C[C@@H](C)CN(C)[C@H](C)[C@@H](O)[C@]1(C)O [compound 4, 2′-dehydroxy-5″-epi-azithromycin] | > 64 µg/mL | > 64 µg/mL | > 64 µg/mL | > 64 µg/mL | > 64 µg/mL | > 64 µg/mL | dose-dependently inhibited the accumulation of neutrophils | Neutrophil accumulation in BALF after intranasal LPS challenge [1]: inhibited neutrophil accumulation; systemic clearance as % of liver blood flow [2]: ca. 4.6 % of liver blood flow; Oral F ([2]; 10 mg/kg p.o., 10 mg/kg): 12% and 12.4 ± 4.2%; half-life ([2]; male, Balb/c, whole blood): ~660 min; Vd ([2]; male, Balb/c, whole blood, intravenous, 2 mg/mg, read-out: Vss): 2 ± 0.8 L/kg; clearance ([2]; male, Balb/c, whole blood, iv, 2 mg/mg, blood): 4.1 ± 1.1 mL/min/kg; Oral F [3]: 62% and 62 ± 10%; systemic clearance as % of liver blood flow [3]: ~18 % of liver blood flow; half-life ([3]; beagle, in vivo): ~1260 min; clearance ([3]; beagle, in vivo, intravenous): 5.5 ± 0.9 mL/min/kg; Vd ([3]; beagle, in vivo, intravenous, read-out: Vss): 6.9 ± 2 L/kg; IC50 [11]: > 33 µM; IC50 [12]: > 33 µM; IC50 [13]: > 33 µM; IC50 [14]: > 33 µM; IC50 [15]: > 33 µM; systemic clearance as % of liver blood flow [16]: ~17.1 % of liver blood flow; half-life ([16]; Sprague-Dawley, whole blood): ~900 min; Vd ([16]; Sprague-Dawley, whole blood, intravenous, 2 mg/mg, read-out: Vss): 11.7 ± 1.9 L/kg; clearance ([16]; Sprague-Dawley, whole blood, iv, 2 mg/mg, blood): 14.5 ± 8.5 mL/min/kg |
